The target in data set [1] is T1, A1 receptors (Rattus norvegicus, UniProt P25099).
T1 sequence (P25099 1-326): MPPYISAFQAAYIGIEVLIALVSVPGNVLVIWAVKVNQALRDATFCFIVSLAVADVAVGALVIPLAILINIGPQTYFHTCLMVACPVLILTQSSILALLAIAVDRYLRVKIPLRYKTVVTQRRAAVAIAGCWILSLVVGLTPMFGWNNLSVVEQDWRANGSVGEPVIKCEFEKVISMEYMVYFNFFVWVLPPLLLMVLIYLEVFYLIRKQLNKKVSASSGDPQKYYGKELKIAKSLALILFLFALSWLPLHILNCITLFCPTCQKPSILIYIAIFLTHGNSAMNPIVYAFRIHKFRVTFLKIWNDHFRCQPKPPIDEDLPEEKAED
Put plainly: inhibition of binding of [3H]-phenylisopropyladenosine in rat brain membranes (D). Details: Rat Brain Membranes; from tissue; host or cells: rat brain (membranes). The procedure:
(§1) For activity at A1 receptors, compounds were tested as inhibitors of the binding of N^6 -[…]-[3H]-Phenylisopropyladenosine in rat brain membranes and for their ability to prevent R-PIA-induced inhibition of adenylate cyclase in rat fat cell membranes.
(D) Rat Brain Membranes

Data set [2] addresses T1, A1 receptors. Put plainly: prevention of R-PIA-induced inhibition of adenylate cyclase in rat fat cell membranes (C). The class given is biochemical. Details: from tissue. The procedure:
as §1
(C) Rat Fat Cell Membranes

Data set [3] relates to adenosine-induced cyclic Amp accumulation in a human fibroblast cell line. The following applies: low concentrations; cited from earlier work.
Data set [4] concerns the target T2, A2 receptors (Rattus norvegicus, UniProt P30543).
T2 construct: Rat PC12 Membranes; endogenous in cells; host or cells: PC12
The data set is described as follows: antagonism of NECA-stimulated adenylate cyclase in rat PC12 membranes (B). The class given is biochemical.

In data set [5] the target is T1, A1 receptors. Put plainly: in vivo test on heart rate / ECG of anesthetized rats. The procedure:
(§2) Rats were anesthetized with urethan and blood pressure was monitored via a carotid cannula. Drug injections were made intravenously through a jugular cannula. Blood pressure, EGC, and heart rate were recorded on a Grass polygraph.

The subject of data set [6] is A2 adenosine receptors. The data set is described as follows: antagonism of adenosine agonists: decrease in contractile tone of guinea pig taenia caecum (A2). Particulars: for antagonism of the effects of adenosine agonists in relaxing the taenia caecum: modified Schild plots; for sensitization of the tissue (larger agonist response): taenia caecum, high concentrations of the compound; for selectivity for A1 adenosine receptors (functional tissues): atrium (A1) vs taenia caecum (A2). As for the experimental part: Taenia from the guinea pig caecum were cut into lengths of 1.5-2 cm. The tissues were suspended in a 20 ml organ bath containing de Jalon's solution that was gassed with 95% O2 +5% CO2 and maintained at 31° C. […] The contractile response was measured isotonically. […] The ability of the compounds to antagonize the effects of agonists was analyzed using modified Schild plots.

In data set [7] the test system is adenosine receptor. The following applies: cited from earlier work.
Data set [8] has as its target T3, A1 adenosine receptors (Cavia porcellus, UniProt P47745).
T3 construct: The left atria from male guinea pigs were isolated; from tissue; host or cells: guinea pig left atrium
T3 sequence (P47745 1-326): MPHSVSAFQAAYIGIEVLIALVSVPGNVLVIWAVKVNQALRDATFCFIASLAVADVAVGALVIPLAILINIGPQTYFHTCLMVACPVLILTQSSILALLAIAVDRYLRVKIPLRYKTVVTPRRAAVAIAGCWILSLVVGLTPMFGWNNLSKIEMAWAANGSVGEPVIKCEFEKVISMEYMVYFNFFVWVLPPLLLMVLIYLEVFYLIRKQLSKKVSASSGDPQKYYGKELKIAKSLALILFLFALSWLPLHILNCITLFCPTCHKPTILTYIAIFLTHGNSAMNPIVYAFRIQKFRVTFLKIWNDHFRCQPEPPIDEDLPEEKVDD
Put plainly: antagonism of adenosine agonists: reduction in force of contraction of guinea pig atrium (A1). Particulars: for basal force of contraction in the atria / competitive antagonism at adenosine receptors in the atria: guinea pig atria. The procedure: The left atria from male guinea pigs were isolated, suspended between two punctate electrodes, and placed in a 20 ml organ bath that contained Krebs-[…] solution that was continuously gassed with 95% O2 +5% CO2 and maintained at 31° C. The resting tension was one gram. The atria were stimulated electrically at 1 Hz, 1 msec duration pulses at supramaximal voltage. The force of contraction was recorded isometrically. The ability of the compounds to antagonize the effects of agonists was analyzed using modified Schild plots.

The target in data set [9] is T4, rat cortical A1 receptors (Rattus norvegicus, UniProt P25099).
T4 construct: rat cortical membranes were the receptor source; from tissue; host or cells: rat cerebral cortex (male Sprague Dawley) membranes
T4 sequence (P25099 1-326): T1 sequence (P25099 1-326)
Put plainly: displacement of [3H]-CHA from rat cortical A1 receptors. The class given is binding. The following applies: [3H]-CHA; rat cortical A1 receptors; read-out: Rat Cortical Binding Constant Ki. As for the experimental part:
(§3) Varying concentrations of test compounds were incubated with the appropriate radioligand and membrane source for 1 hr at room temperature.
(§4) Assays were terminated by filtration over Whatman GF/B filters that had been pre-soaked with 0.1% polyethyleneimine using a 24 port Brandell cell havester. The filters were washed three times with 3 ml of ice cold buffer and transfered to plastic scintillation vials to which 4 ml of Beckman Ready protein scintillation cocktail was added. The tubes were shaken and counted in a Beckman 3801 scintillation counter that converted cpm to dpm.
(§5) Data were analyzed by utilizing the Ligand, commercial computer program (Munson and Rodbard, 1980).
(§6) Male Sprague Dawley rats were killed by decapitation and the brains removed. The cerebral cortices were homogenized in 50 mm Tris; 2mm MgCl2 (pH 7.4), and centrifuged at 40,000×g for 10 minutes. […] The homogenate was centrifuged, washed once, resuspended to a protein concentration of 5-10 mg/ml and frozen at -70° C. until use.
In general terms: Displacement assays read how much labelled ligand stays bound in the presence of the test substance.

The target in data set [10] is T5, A2 receptors (Homo sapiens, UniProt P29274).
T5 construct: Human Platelet Membranes; from tissue; host or cells: human platelets (membranes)
The data set is described as follows: antagonism of NECA-stimulated adenylate cyclase in human platelet membranes (A). The class given is biochemical. Particulars: for Kb: (A) Human Platelet Membranes, A2 Effects.

The test system of data set [11] is A2 receptors. The data set is described as follows: in vivo test on blood pressure of anesthetized rats. Particulars: prior administration, anesthetized rat. The procedure:
as §2

For data set [12], the target named is T1, A1 receptors. Put plainly: [3H]-CHA binding, rat cortical membranes (A1), selectivity experiment of Table 4. Details: Rat Brain Membranes; from tissue; host or cells: rat brain (membranes). As for the experimental part:
as §3, §4, §5, §6

Data set [13] has as its target T6, A2 receptors (Bos taurus, UniProt E1BKU0).
T6 construct: bovine caudate was the source of membranes; from tissue; host or cells: bovine caudate nuclei (membranes)
The data set is described as follows: [3H]-NECA binding, bovine caudate membranes (A2). The following applies: Table 4, with 50 nM cyclopentyl-adenosine. As for the experimental part: Further tests to discover the affinities of test compounds at A2 receptors were conducted.
To provide bovine caudate nuclei, bovine brains were obtained fresh from a local slaughterhouse. The caudate nuclei were dissected out and homogenized in Buffer A (50 mm Tris; 1 mm Na2-EDTA; 5 mm KCl; 1 mm MgCl2; 2 mm CaCl2; pH 7.4) using a Brinkman Polytron. The homogenate was centrifuged at 40,000×g for 20 minutes and washed once. The pellet was resuspended in Buffer A, incubated at 37° C. for 15 minutes, then centrifuged. The pellet was washed once more, resuspended to a protein concentration of 5-10 mg/ml in Buffer A and frozen at -70° C. until use.
as §3, §4, §5

The subject of data set [14] is A2 receptors. The following applies: vs N^6 -substituted adenosine analogs; cited from earlier work.
Where [15] appears, read: (D) Rat Brain Membranes, A1 Effects, read-out: Ki vs [^3 H] PI (Binding).
The mark [16] stands for this setting: (C) Rat Fat Cell Membranes, A1 Effects, read-out: KB vs PIA INHIBITION (Adenylate Cyclase).
The mark [17] stands for this setting: (B) Rat PC12 Membranes, A2 Effects.
The mark [18] stands for this setting: guinea pig atrium, modified Schild plots.

Like-named read-outs stand apart in the source and are kept apart here.

T2 sequence (P30543 whole entry): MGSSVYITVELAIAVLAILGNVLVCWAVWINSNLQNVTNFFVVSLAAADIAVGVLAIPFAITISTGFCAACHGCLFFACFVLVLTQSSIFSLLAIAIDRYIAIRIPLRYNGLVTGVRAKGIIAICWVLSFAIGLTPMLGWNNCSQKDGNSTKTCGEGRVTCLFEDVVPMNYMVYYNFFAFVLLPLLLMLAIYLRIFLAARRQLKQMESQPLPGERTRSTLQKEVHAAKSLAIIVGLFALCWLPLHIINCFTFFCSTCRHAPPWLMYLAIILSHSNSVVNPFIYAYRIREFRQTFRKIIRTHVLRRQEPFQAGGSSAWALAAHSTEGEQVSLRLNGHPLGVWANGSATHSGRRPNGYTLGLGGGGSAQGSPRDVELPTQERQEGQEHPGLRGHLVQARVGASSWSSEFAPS
T5 sequence (P29274 whole entry): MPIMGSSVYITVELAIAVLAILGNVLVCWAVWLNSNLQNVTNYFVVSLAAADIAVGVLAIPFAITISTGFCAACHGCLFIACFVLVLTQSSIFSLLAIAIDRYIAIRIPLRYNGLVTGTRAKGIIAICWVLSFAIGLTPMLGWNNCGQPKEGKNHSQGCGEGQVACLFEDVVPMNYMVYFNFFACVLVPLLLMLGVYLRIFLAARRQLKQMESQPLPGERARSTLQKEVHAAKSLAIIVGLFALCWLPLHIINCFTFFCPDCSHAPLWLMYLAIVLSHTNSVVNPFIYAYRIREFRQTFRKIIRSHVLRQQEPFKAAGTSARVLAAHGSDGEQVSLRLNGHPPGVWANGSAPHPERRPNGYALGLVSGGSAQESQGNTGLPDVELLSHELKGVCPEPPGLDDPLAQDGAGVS
T6 sequence (E1BKU0 1-401): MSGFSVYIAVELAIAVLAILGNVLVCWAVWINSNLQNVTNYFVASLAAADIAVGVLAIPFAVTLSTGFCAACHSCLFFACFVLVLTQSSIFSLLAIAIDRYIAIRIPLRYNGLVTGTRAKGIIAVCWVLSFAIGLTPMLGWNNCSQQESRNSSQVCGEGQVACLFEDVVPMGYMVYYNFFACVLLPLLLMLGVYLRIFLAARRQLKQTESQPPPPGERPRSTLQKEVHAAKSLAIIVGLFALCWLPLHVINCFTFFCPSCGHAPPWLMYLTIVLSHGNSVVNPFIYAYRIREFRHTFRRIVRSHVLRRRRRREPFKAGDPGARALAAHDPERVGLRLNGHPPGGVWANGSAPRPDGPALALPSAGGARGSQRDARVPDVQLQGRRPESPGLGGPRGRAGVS

The compound `Nc1ncnc2nc[nH]c12` [Adenine, reference compound] showed a Ki in [1] above 100 µM. In addition, the Kb in data set [2] is above 1000 µM; in [4], 570 µM. Moreover, the “antagonism of adenosine-induced cyclic Amp accumulation” value in data set [3] is “specific competitive antagonism”.

Turning to `Nc1ncnc2c1ncn2[C@@H]1O[C@H](CO)[C@@H](O)[C@H]1O` [Adenosine, reference compound], the “heart block at high doses” value in data set [5] (high doses) is “causes heart block”.

For `Cn1c(=O)c2[nH]c(-c3ccccc3)nc2n(C)c1=O` [8-phenyltheophylline (8-PT), 8-phenyltheophylline, reference compound], in data set [6], the “antagonism of the effects of adenosine agonists in relaxing the taenia caecum” value (“antagonism … in relaxing the taenia caecum” below) is “did antagonize the effects of agonists at low concentrations” and the “sensitization of the tissue (larger agonist response)” value (“sensitization of the tissue” below) was “Sensitization is also observed”. The “selectivity among adenosine receptors” value in data set [7] is “non-selective adenosine receptor antagonist”.

`CCC(Cc1cccs1)Nc1ncnc2c1ncn2C` (stereo not drawn) [N^6-1-(2-Thienyl)-2-butyl)-9-MA, N^6-1-(2-Thienyl)-2-butyl-9-MA]: in [8], the “basal force of contraction in the atria” value is on record as “increases in basal force of contraction in the atria” and the “competitive antagonism at adenosine receptors in the atria” value (“competitive antagonism” below) was “competitive antagonists at adenosine receptors in the atria”. Further, the Kb in [8] (guinea pig atrium, modified Schild plots, read-out: affinity constant pKB (converted)) was 4.37 µM.

`Cn1cnc2c(NCCc3ccccc3)ncnc21` [compound 0990, N^6-2-(phenethyl)9-MA]: the Ki in data set [1] (setting [15]) was above 100 µM; in data set [9], above 10 µM. Also, the Kb is above 300 µM in data set [2] (setting [16]), 120 µM in data set [4] (setting [17]) and 170 µM in [10].

`Cn1cnc2c(NC3CCCC3)ncnc21` [compound 0840, N^6 -Cyclopentyl-9-Methyl Adenine]: the “competitive antagonism” value in data set [8] is recorded as “competitive antagonists at adenosine receptors in the atria”. The “affinity constant pKB” value in [8] (setting [18]) came out at 6.17 ± 0.11. The “potency relative to 9-methyladenine at A1 receptors” value in data set [1] (A1 receptors, vs 9-methyladenine) is “at least 100 fold”. Also, the “selectivity for A1 adenosine receptors (functional tissues)” value (“selectivity for A1 adenosine receptors” for short) in data set [6] was “selective for A1 adenosine receptors”. Further, the “antagonism … in relaxing the taenia caecum” value in [6] is on record as “did not competitively antagonize the effects of adenosine agonists in relaxing the taenia caecum”. Besides, the “sensitization of the tissue” value in data set [6] is reported as “some sensitization of the tissue”. The Ki in [9] amounted to 0.375 µM. Besides, the Kb in data set [2] (setting [16]) is 1.3 µM; in data set [4] (setting [17]), 25 µM; in data set [10] it was 4.9 µM. The “potency relative to 9-methyladenine at A2 receptors” value in [10] (human platelet assay, vs 9-methyladenine) came to 5 fold.

Take `Cn1cnc2c(N[C@H]3C[C@H]4CC[C@@H]3C4)ncnc21` (relative stereo) [compound 0861, N^6-(endo-2-Norbornyl)-9-Methyladenine]: the “potency ranking as antagonist” value in [8] (among the Table 2 examples) is on record as “the most potent antagonist”. Further, the “competitive antagonism” value in data set [8] is recorded as “competitive antagonists at adenosine receptors in the atria”. Further, the “NECA-induced decrease in blood pressure” value in data set [11] is listed as “minimally affecting the NECA-induced decrease in blood pressure”. In addition, in [6], the “selectivity for A1 adenosine receptors” value is on record as “selective for A1 adenosine receptors”, the “antagonism … in relaxing the taenia caecum” value is reported as “did not competitively antagonize the effects of adenosine agonists in relaxing the taenia caecum” and the “sensitization of the tissue” value was “some sensitization of the tissue”. Also, the Ki in data set [9] was determined as 0.116 µM. The “selectivity for A1 receptors over A2 receptors” value in [12] (A1 vs A2) is on record as 170 fold. Moreover, the Ki in data set [12] (Table 4, [3H]-CHA, rat cortical membranes per text) was found to be 0.041 µM. Besides, the cardio-selectivity in vivo result in data set [5] is given as “cardio-selective adenosine receptor antagonist in vivo”. Moreover, in data set [5] (intravenous), the “effects of subsequently administered adenosine on all parameters measured (blood pressure, heart rate, P-R interval)” value was “attenuated the effects of subsequently administered adenosine on all parameters measured” and the “heart block caused by high doses of adenosine” value is on record as “substantially reduced”. Also, in data set [5] (prior administration), the “effects of NECA on the heart” value is “attenuated the effects of NECA on the heart”. For the same compound, in data set [13], the Ki was found to be 6.96 µM.

In the case of `CCNC(=O)[C@H]1O[C@@H](n2cnc3c(N)ncnc32)[C@H](O)[C@@H]1O` [NECA, 5'-N-ethylcarboxamido-adenosine], the “potency at A2 receptors” value in data set [14] was “more potent than N^6 -substituted analogs”.

Turning to `COc1cc(CCNc2ncnc3c2ncn3C)cc(OC)c1OC` [compound 1002, N^6-2-(3,4,5-Trimethoxyphenyl) ethyl-9-MA], the inhibitory constant (Ki) in data set [1] (setting [15]) was above 100 µM; in [9], above 10 µM. Further, the Kb worked out at 122 µM in [2] (setting [16]), 40 µM in data set [4] (setting [17]) and 23 µM in data set [10].

As to `CCC(CC)Nc1ncnc2c1ncn2C` [N^6-3-Pentyl-9-MA, N^6-3-Pentyl-9-Methyladenine], in data set [8], the “basal force of contraction in the atria” value is reported as “increases in basal force of contraction in the atria” and the “competitive antagonism” value is “competitive antagonists at adenosine receptors in the atria”. The “affinity constant pKB” value in data set [8] (setting [18]) was 5.4 ± 0.14. The Ki in [1] (setting [15]) amounted to 3.3 µM. In addition, in [6], the “selectivity for A1 adenosine receptors” value is given as “selective for A1 adenosine receptors”, the “antagonism … in relaxing the taenia caecum” value is reported as “did not competitively antagonize the effects of adenosine agonists in relaxing the taenia caecum” and the “sensitization of the tissue” value is “some sensitization of the tissue”. In addition, in [2] (setting [16]), the Kb was determined as 7.6 µM. Also, the Kb in data set [4] (setting [17]) was 53 µM. The compound also gave a Kb in data set [10] of 11 µM.

A word on the Ki: it is a dissociation constant, usually derived from enzyme kinetics or from competition with a known ligand.
